The source of these data is patent US10138212B2, “Aminoquinazoline compounds as A2A antagonist” (Merck Sharp & Dohme Corp., priority 2015, dated 2018).

SMILES strings stand for the structures.

In test [1] the target is human A2a receptor (Homo sapiens (Human), UniProt P29274). The experiment in a line: A2a competition binding assay using Scintillation Proximity technology. To be noted: 0.25 μg of membranes from HEK293 cells expressing the human A2a receptor. How it is done: (§1) Binding affinities of compounds of the invention for the human A2a receptor were determined in a competition binding assay using Scintillation Proximity technology. Thus, 1* μg, or preferably 0.25 μg of membranes from HEK293 cells expressing the human A2a receptor were incubated with a compound of the invention at concentrations ranging from 3000 nM to 0.15 nM in a reaction mixture containing also 0.5 nM of a tritiated form of 5-amino-7-[2-phenethyl]-2-(furan-2-yl)-7H-pyrazolo[4,3-e][1,2,4]triazolo[1,5-c]pyrimidine (the tritiated compound) and 25 μg of wheat germ agglutin-coated yttrium silicate SPA beads for one hour at room temperature with agitation. The beads were then allowed to settle to the bottom of the wells for 1 hr, after which the membrane-associated radioactivity was determined by scintillation counting in a TopCount microplate reader. Ki values were determined using the Cheng-Prusoff equation.
HEK293 cells expressing the human, rat, dog or monkey adenosine 2a receptor (Purchased from Perkin-Elmer # RBHA2AM400UA).
The Tritiated compound was prepared in-house by MRL Radiochemistry according to published methods.
Wheat germ agglutinin-coated yttrium silicate SPA beads (GE Healthcare #RPNQ0023). Dilute to 25 mg/ml in assay buffer.
Assay Buffer was prepared in house: Dulbecco's calcium and magnesium free phosphate buffered saline+10 mM MgCl2
Adenosine deaminase from calf intestine, 10 mg/2 ml (Roche #10 102 105 001).
A2a antagonist standard (9-chloro-1-(2-furanyl)-[1,2,4]triazolo1,5-c]quinazolin-5-amine from Tocris Bioscience)
Make eight 1:3 serial dilutions in 100% DMSO from a 3 mM compound stock
Transfer 50 nl of compound into a 384-well OptiPlate (Perkin Elmer).
Typically, final concentrations of compound used in the assay ranged from 3000 nM to 0.152 nM.
Dilute a solution of the Tritiated compound to 1.25 nM in assay buffer. This is a 2.5× solution. The final concentration in the assay is 0.5 nM. Calculate the concentration by counting two 5 μl aliquots.
Use *1 ug or preferrably 0.25 ug of membrane/well. Dilute membranes to 9.7 μg/ml in assay buffer. Treat with 20 ug/ml adenosine deaminase (ADA) for 15 minutes at room temperature to degrade endogenous adenosine.
Use 25 μg/well wheat germ agglutinin-coated yttrium silicate SPA beads.
Mix ADA-treated membranes and SPA beads together for 30 min prior to assay.
To the Perkin-Elmer Optiplate-384 containing the compound titration add 20 μl of 2.5× solution of the Tritiated compound and 30 μl of the membrane-bead mixture. Incubate for one hour at room temperature with agitation.
Include total binding (assay buffer+1% DMSO) and non-specific binding (CGS15943, 1 μM) wells.
Allow the beads to settle for one hour.
A curve fitting program (i.e., Prism, Activity Base, Chemcart) is used to determine the EC50. The Ki value is calculated using the Cheng-Prusoff equation. Ki=EC50/(1+(radioligand concentration/Kd))
Using the foregoing assay method, the Ki results were obtained using the compounds of the invention described in Tables IIIa, IIIb, and IV. Each example compound tested is reported in the following format: Example number: A2a Ki reported in nM. Thus, for example, the compound Ex-1 was determined to have an Ki using the above-described assay and calculations, of 10.0 nM.
Background: Scintillation proximity formats need no separation of bound from free tracer.

For test [2], the target named is human A1 receptor (Homo sapiens (Human), UniProt P30542). Nature of the test: A1 competition binding assay using Scintillation Proximity technology; selectivity = A1 binding Ki / A2a binding Ki. The note with it: A1 binding Ki divided by A2a binding Ki. How it is done: as §1, with “A1” for “A2a”, “5” for “1* μg, or preferably 0.25 μg”, “CHO-K1” for “HEK293”, “0.7” for “0.5”, “8-Cyclopentyl-1,3-dipropylxanthine” for “5-amino-7-[2-phenethyl]-2-(furan-2-yl)-7H-pyrazolo[4,3-e][1,2,4]triazolo[1,5-c]pyrimidine”, “in a similar fashion described with A2a binding.” for “using the Cheng-Prusoff equation.”
• Cells expressing the human, rat, dog or monkey adenosine 1 receptor (Purchased from Perkin-Elmer # ES-010-M400UA • [^3H]DPCPX (purchased from Perkin-Elmer NET-974, 8-cyclopentyl-1,3-dipropylxanthine, [dipropyl-2,3-^3H(N)]. • Wheatgerm agglutinin-coated yttrium silicate SPA beads (Purchased from GE Healthcare #RPNQ0023). Dilute to 25 mg/ml in assay buffer. Store at 4° C. • Assay Buffer—Dulbecco's phosphate buffered saline without calcium and without magnesium+10 mM MgCl2 • Adenosine deaminase from calf intestine, 10 mg/2 ml (Roche #10 102 105 001). • DMSO • DPCPX (A1 antagonist) from Tocris Bioscience Compound Dilution • Dilute compounds to 1 mM in 100% DMSO
Make serial dilutions as necessary (i.e., 1:10, 1:3) in 100% DMSO.
Dilute 1:20 into assay buffer (i.e. 3 ul into 57 ul buffer). This is a 5× solution in 5% DMSO.
• Dilute [^3H]DPCPX to 1.75 nM in assay buffer. This is a 2.5× solution. The final concentration in the assay is 0.7 nM. Calculate the concentration by counting two 5 ul aliquots. Membrane Preparation • Use 5 ug of membrane/well. Dilute membranes to 250 ug/ml in assay buffer. Treat with 20 ug/ml adenosine deaminase (ADA) for 15 minutes at room temperature to degrade endogenous adenosine. Membrane-Bead Mixture • Use 25 ug/well wheatgerm agglutinin-coated yttrium silicate SPA beads • Mix ADA-treated membranes and SPA beads together for 30 min prior to assay. Assay Assembly • Add in order to a Perkin-Elmer Optiplate-384: 10 ul of 5× compound, 20 ul of 2.5× [^3H]DPCPX, 20 ul membrane-bead mixture. Incubate for one hour at room temperature with agitation. • Include total binding (assay buffer+1% DMSO) and non-specific binding (DPCPX, 1 uM) wells. Counting and Calculations

Chain of human A1 receptor (P30542 whole entry): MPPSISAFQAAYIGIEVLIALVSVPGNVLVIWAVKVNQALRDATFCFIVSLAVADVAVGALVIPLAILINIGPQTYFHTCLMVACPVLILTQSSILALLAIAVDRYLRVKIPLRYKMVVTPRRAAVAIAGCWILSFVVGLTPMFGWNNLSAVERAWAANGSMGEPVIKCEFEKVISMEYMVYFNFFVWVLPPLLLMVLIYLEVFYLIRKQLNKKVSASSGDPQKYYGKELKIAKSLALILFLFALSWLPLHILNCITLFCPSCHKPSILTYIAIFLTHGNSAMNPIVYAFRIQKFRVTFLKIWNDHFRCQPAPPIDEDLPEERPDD
Chain of human A2a receptor (P29274 whole entry): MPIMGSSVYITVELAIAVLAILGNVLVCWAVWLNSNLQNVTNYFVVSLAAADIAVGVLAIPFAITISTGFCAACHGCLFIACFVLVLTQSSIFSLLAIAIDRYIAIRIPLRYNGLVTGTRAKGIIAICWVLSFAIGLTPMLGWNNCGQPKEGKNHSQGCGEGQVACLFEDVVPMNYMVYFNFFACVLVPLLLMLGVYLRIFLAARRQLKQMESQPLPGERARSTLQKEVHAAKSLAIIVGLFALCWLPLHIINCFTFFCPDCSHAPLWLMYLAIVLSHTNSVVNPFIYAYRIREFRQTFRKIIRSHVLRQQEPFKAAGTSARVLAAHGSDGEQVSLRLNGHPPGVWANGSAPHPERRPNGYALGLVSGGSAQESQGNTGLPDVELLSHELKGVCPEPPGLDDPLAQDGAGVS

Turning to `COc1cccc2c(C(=O)NCc3nc(C)ccc3F)nc(N)nc12` [Example 20, 2-amino-N-[(3-fluoro-6-methyl-2-pyridyl)methyl]-8-methoxy-quinazoline-4-carboxamide], the affinity in test [1] corresponds to a Ki of 0.5 nM. Moreover, in test [2], the “A2a selectivity (A2a A1 binding selectivity)” value (“A2a selectivity” below) turned out to be 89.

`COc1cccc(CNC(=O)c2nc(N)nc3c(OC)cccc23)n1` [Example 21, 2-amino-8-methoxy-N-[(6-methoxy-2-pyridyl)methyl]quinazoline-4-carboxamide] returned an inhibitory constant (Ki) in test [1] of 0.8 nM. For the same compound, the “A2a selectivity” value in test [2] turned out to be 82.

Turning to `COc1ccc(CNC(=O)c2nc(N)nc3c(OC)cccc23)nc1` [Example 22, 2-amino-8-methoxy-N-[(5-methoxy-2-pyridyl)methyl]quinazoline-4-carboxamide], the affinity in test [1], expressed as Ki, was 7.8 nM. For the same compound, the “A2a selectivity” value in test [2] is given as 52.

Take `COc1cccnc1CNC(=O)c1nc(N)nc2c(OC)cccc12` [Example 23, 2-amino-8-methoxy-N-[(3-methoxy-2-pyridyl)methyl]quinazoline-4-carboxamide]: the affinity in test [1], expressed as Ki, was 3 nM. In test [2], the “A2a selectivity” value is on record as 110.

The compound `COc1cccc2c(C(=O)NCc3ncccc3C)nc(N)nc12` [Example 24, 2-amino-8-methoxy-N-[(3-methyl-2-pyridyl)methyl]quinazoline-4-carboxamide] returned a Ki in test [1] of 0.9 nM. Besides, the “A2a selectivity” value in test [2] was found to be 180.

In turn, `COc1cccc2c(C(=O)NCc3ncccc3F)nc(N)nc12` [Example 25, 2-amino-N-[(3-fluoro-2-pyridyl)methyl]-8-methoxy-quinazoline-4-carboxamide] displayed an inhibition constant (Ki) in test [1] of 1.4 nM. Moreover, in test [2], the “A2a selectivity” value stood at 221.

For the compound `COc1cccc2c(C(=O)NCc3ccc(F)cn3)nc(N)nc12` [Example 26, 2-amino-N-[(5-fluoro-2-pyridyl)methyl]-8-methoxy-quinazoline-4-carboxamide], in test [1], the affinity corresponds to a Ki of 6.6 nM. Also, the “A2a selectivity” value in test [2] is 89.

`COc1cccc2c(C(=O)NCc3cccc(F)n3)nc(N)nc12` [Example 27, 2-amino-N-[(6-fluoro-2-pyridyl)methyl]-8-methoxy-quinazoline-4-carboxamide] showed a Ki in test [1] of 1.5 nM. Besides, the “A2a selectivity” value in test [2] is 148.

`COc1cccc2c(C(=O)NCc3ncc(C)cc3C)nc(N)nc12` [Example 28, 2-amino-N-[(3,5-dimethyl-2-pyridyl)methyl]-8-methoxy-quinazoline-4-carboxamide] yielded a Ki in test [1] of 1.5 nM. Besides, in test [2], the “A2a selectivity” value stood at 117.

In test [1], `COc1cccc2c(C(=O)NCc3ncc(F)cc3F)nc(N)nc12` [Example 29, 2-amino-N-[(3,5-difluoro-2-pyridyl)methyl]-8-methoxy-quinazoline-4-carboxamide] gave a Ki of 2.9 nM. The “A2a selectivity” value in test [2] is given as 118.

In turn, `COc1cccc2c(C(=O)NCc3ccc4ccccc4n3)nc(N)nc12` [Example 30, 2-amino-8-methoxy-N-(2-quinolylmethyl)quinazoline-4-carboxamide] had an inhibition constant (Ki) in test [1] of 1.5 nM. Also, the “A2a selectivity” value in test [2] was 138.

Regarding `COc1cccc2c(C(=O)NCc3nc(-c4ccccc4)c(C)o3)nc(N)nc12` [Example 31, 2-amino-8-methoxy-N-[(5-methyl-4-phenyl-oxazol-2-yl)methyl]quinazoline-4-carboxamide], the inhibition constant Ki in test [1] was determined as 1.6 nM. Besides, the “A2a selectivity” value in test [2] is on record as 105.

The compound `COc1cccc2c(C(=O)NC3CCc4cccnc43)nc(N)nc12` (stereo not shown) [Example 32, 2-amino-N-(6,7-dihydro-5H-cyclopenta[b]pyridin-7-yl)-8-methoxy-quinazoline-4-carboxamide] displayed a Ki in test [1] of 1.8 nM. Also, the “A2a selectivity” value in test [2] is reported as 370.

Compound `COc1cccc2c(C(=O)N[C@@H]3CCc4ccccc43)nc(N)nc12` [Example 33, 2-amino-N-[(1R)-indan-1-yl]-8-methoxy-quinazoline-4-carboxamide] came in with a Ki in test [1] of 5.3 nM. For the same compound, in test [2], the “A2a selectivity” value came to 60.

For orientation: Ki means a dissociation constant, usually derived from enzyme kinetics or from competition with a known ligand. A high value points to a looser hold on the target.
